Reference: patent publication US20130209487A1, “Treatment of Avian Species with Inhibitors of P110 Delta Signaling” (priority 2010, published 2013)
“Also recorded” adds a separate entry of the source.

What was measured:
[1] = system: influenza virus strain PR8; assay type: cell-based
[2] = system: H7N7 A/Equine/London/1416/73 influenza virus strain; design: species or system mice; settings: mouse, in vivo

Structure (SMILES): Cc1ccccc1-n1c(Cn2cnc3c(N)ncnc32)nc2cccc(C)c2c1=O [IC87114]
- influenza virus replication [1]: inhibits influenza virus replication
- viral mRNA production reduced compared to untreated cells [1]: ~25 fold
- survival after lethal challenge [2]: increased survival; also recorded: protects mice lethally challenged with virulent influenza virus
- survival of A549 cell (A549 cell): did not affect the survival
